Source: patent US20240400621A1, “PEPTIDES FOR METABOLIC SYNDROME” (ALPARIS, S.A. de C.V., priority 2021, published 2024)
Like-named read-outs stand apart in the source and are kept apart here. Where no end group is shown, it is not given here.

Legend:
[1] = target: T1, hTLR2 (Homo sapiens, UniProt O60603); assay: hTLR2 stimulation in HEK-Blue hTLR2 cells (NF-κβ/SEAP reporter, QUANTI-Blue); format: cell-based
T1 construct: expressed in transfected cells; host or cells: HEK-Blue hTLR2 cells
Description: The analysis of the biological activity of the protein of SEQ ID NO. 1 was performed via an in vitro Toll-like receptors (TLRs) recognition assay. The HEK-Blue hTLR2 cell line expressing the hTLR2 receptor was used, whose stimulation activates the NF-Kβ factor, which in turn induces the production of the reporter protein, secreted embryonic alkaline phosphatase (SEAP). The SEAP levels are quantified by a colorimetric method with the reagent QUANTI-Blue and correspond to hTLR2 stimulation levels. The HEK-Blue hTLR2 cell line was thawed and propagated to make a master cell bank. From this bank, a vial was thawed to check the correct growth of the cell line and the absence of mycoplasma contamination. The cells of the thawed vial were propagated to make a working cell bank and continue the subcultures to mount the activity assay of SEQ ID NO. 1. This consisted of a series of tests in which the cellular response was evaluated with different molecules to determine the most suitable conditions for the assay.
The determined EC50 for SEQ ID NO. 1 was 1147±211 ng/ml (35.1±6.4 nM).
The in vitro biological activity of SEQ ID NO:2, SEQ ID NO:3, SEQ ID NO:4, SEQ ID NO: 8, SEQ ID NO:9, SEQ ID NO: 10, SEQ ID NO:11, SEQ ID NO: 12, SEQ ID NO: 13, SEQ ID NO: 14, SEQ ID NO: 15, and SEQ ID NO:16 was tested via the stimulation of hTLR2 in the cultures of HEK-Blue hTLR2 cells in 96-well plates for 24 h. After collecting the supernatant, the plate was incubated with QUANTI-Blue at 37° C. for 1 h, and absorbance was measured at 620 nm.
To determine the EC50, the absorbance was plotted against the logarithm of protein concentration, and the data was adjusted to a dose-response sigmoidal ligand binding model with 4 parameters. The cell culture medium was used as a negative control, and PAM (synthetic triacylated lipopeptide (Pam3CSK4)) was used as a positive control.

[2] = Body weight of mice on high-fat diet (DAG) with intragastric peptide for 12 weeks; format: in vivo, mice (C57BL/6JN)
Description: (§1) For all the in vivo testing, male mice of the C57BL/6JN strain between 8 to 10 weeks of age were used, housed in groups of 3 to 5 mice per cage with food and water ad libitum in ventilated racks, and whose microbiota were unified for 4 weeks.
(§2) The mice received either 200 μL of a phosphate buffer solution (PBS) at pH 7.5 (as a vehicle), or 200 μL of the PBS solution, with each of the intragastric treatments daily for 12 weeks. They were fed either a Normal Diet (DN, Harlan, Teklad 2018SX) with 18% of the calories coming from fat, or a High-Fat Diet (DAG, Research Diets, D12491), with 60% of the calories coming from fat.
(§3) All the mice were randomly divided into five experimental groups in order to study the effect of SEQ ID NO: 3 and SEQ ID NO: 2 correctly: • Group 1—Mice with DN that received 200 μl of PBS intragastrically. • Group 2—Mice with DAG that received 200 μl of PBS intragastrically. • Group 3—Mice with DAG that received 200 μl of PBS with SEQ ID NO: 3 intragastrically at a dose of: 2.5 μg/mouse. • Group 4—Mice with DAG that received 200 μl of PBS with SEQ ID NO: 2 intragastrically at a dose of 0.6 μg/mouse (high dose). • Group 5—Mice with DAG that received 200 μl of PBS with SEQ ID NO: 2 intragastrically at a dose of 0.2 μg/mouse (low dose).
The animal weights and feed intakes were recorded weekly.
To determine the metabolic status of the animals before starting the experiment, weight, basal glucose levels, glucose tolerance, and insulin resistance were recorded.

[3] = test system: mice fed a high-fat diet; assay: Glucose tolerance test (GTT) in mice fed a high-fat diet; format: in vivo, mice (C57BL/6JN); conditions: 12 weeks; intragastric daily; SEQ ID NO: 3 2.5 μg/mouse, SEQ ID NO: 2 0.6 or 0.2 μg/mouse
Description: as §1
as §2, with “fat. […]” for “fat.”
The mice were subjected to fasting for 6 hours, and the baseline glucose values in the blood were determined using glucose test strips and a glucometer (Roche's ACCU-CHECK ACTIVE).
Next, the mice received an intraperitoneal injection of 1.8 mg of glucose per gram of body weight, and the blood glucose values were recorded at 15, 30, 60, and 120 minutes after administration.
FIGS. 19A and 19B show the area under the curve (AUC) of the glucose tolerance test of the mice, measured at week 0 and 12.

[4] = test system: mice fed a high-fat diet; assay: Insulin resistance test (PRI) in mice fed a high-fat diet; format: in vivo, mice (C57BL/6JN); conditions: 12 weeks; intragastric daily; SEQ ID NO: 3 2.5 μg/mouse, SEQ ID NO: 2 0.6 or 0.2 μg/mouse
Description: as §1
as §2, with “fat. […]” for “fat.”
The mice were subjected to fasting for 6 hours and the baseline glucose values were determined, as described above. Subsequently, the mice received an intraperitoneal injection of 1 mU of insulin per gram of body weight, and blood glucose values were recorded at 15, 30, 60, and 120 minutes after administration. The area under the curve (AUC) of the insulin resistance test was calculated considering the glucose decrease between time T0 and T15 using the absolute glucose values, as shown in FIGS. 20A and 20B.

[5] = test system: insulin; assay: Insulin levels (secretion in response to glucose) in mice fed a high-fat diet; format: in vivo, mice (C57BL/6JN); conditions: 12 weeks; versus DAG group
Description: as §1, §2, §3
This means that the peptide SEQ ID NO: 3 improves insulin sensitivity, preventing insulin resistance from developing.

[6] = test system: adipose tissue; assay: Cellular infiltrate / inflammatory process in adipose tissue of mice fed a high-fat diet; format: in vivo, mice (C57BL/6JN)
Description: as §1, §2, §3
(§4) To determine the effect of the peptides SEQ ID NO: 2 and SEQ ID NO: 3 in attenuating the inflammatory process in adipose tissue, the cellular infiltrate of the adipose tissue of the mice was quantified after they had been fed DAG.

[7] = test system: IL-1B; assay: Circulating IL-1B levels in mice fed a high-fat diet; format: in vivo, mice (C57BL/6JN); conditions: 12 weeks; versus DAG; including SEQ ID NO: 2 at low doses
Description: as §1
as §2, with “fat. […]” for “fat.”
as §4

[8] = test system: TNFα; assay: Circulating TNFα levels in mice fed a high-fat diet; format: in vivo, mice (C57BL/6JN); conditions: 12 weeks; versus DAG; including SEQ ID NO: 2 at low doses
Description: as §1
as §2, with “fat. […]” for “fat.”
as §4

[9] = test system: IL-6; assay: IL-6 levels in mice fed a high-fat diet; format: in vivo, mice (C57BL/6JN); conditions: 12 weeks; animals fed DAG
Description: as §1, §2, §3

[10] = test system: leptin; assay: Leptin levels in mice fed a high-fat diet; format: in vivo, mice (C57BL/6JN); conditions: 12 weeks; compared to mice fed only DAG
Description: as §1, §2
as §3, with “(low dose). […]” for “(low dose).”

[11] = test system: adiponectin; assay: Adiponectin levels in mice fed a high-fat diet; format: in vivo, mice (C57BL/6JN); conditions: 12 weeks; fall induced by DAG
Description: as §1, §2
as §3, with “(low dose). […]” for “(low dose).”

[12] = target: T2, human Toll-like receptor 2 (hTLR2) on HEK-Blue hTLR2 cells (human (printed as hTLR2), UniProt O60603 21-784); assay: cell-based or functional assay
[13] = Aggregation during ultrafiltration / buffer change; format: physicochemical
Excerpt: The protein of SEQ ID NO. 1, expressed in recombinant form in this invention, contains a tag of six residues of histidine at the carboxyl terminal end, allowing it to be purified by immobilized metal cation affinity chromatography (IMAC). Purification was initially evaluated with the soluble fractions of the two strains that were used for recombinant production, obtained by enzymatic lysis and sonication. The first approach with the Ni-NTA Agarose resin allowed for the recovery of 6% of the SEQ ID NO. 1 with a purity of 50-80%. An FPLC Ákta Prime chromatographic system and an XK16/20 column packed with 13 mL of Chelating Sepharose Fast Flow-Ni^+2 resin were used for purification. A minimum imidazole concentration of 30 mM was defined in both the sample to be injected and the equilibrium buffer. Elution was performed with 500 mM imidazole at 6.5 mL/min, resulting in a minimum recovery of 80% of SEQ ID No. 1 with 82% purity. The ultrafiltration of the tangential flow of SEQ ID NO. 1 during the chromatography stage, in order to concentrate and change the buffer, negatively impacted protein quality. However, the dialysis of EQ ID NO.
However, the aggregation of SEQ ID NO. […] This was corroborated by the SDSPAGE analysis, in which the remaining protein in the soluble fraction presented fragments of lower molecular weight than that of SEQ ID NO. 1, but greater than 25 kDa. On the other hand, the precipitate turned out to be denatured SEQ ID NO. 1, but not degraded.
Finally, SEQ ID NO. 4 and SEQ ID NO.

[14] = target: T2, human Toll-like receptor 2 (hTLR2) on …; assay: cell-based or functional assay; remark: listed apart in the source

T1 sequence (O60603 21-784): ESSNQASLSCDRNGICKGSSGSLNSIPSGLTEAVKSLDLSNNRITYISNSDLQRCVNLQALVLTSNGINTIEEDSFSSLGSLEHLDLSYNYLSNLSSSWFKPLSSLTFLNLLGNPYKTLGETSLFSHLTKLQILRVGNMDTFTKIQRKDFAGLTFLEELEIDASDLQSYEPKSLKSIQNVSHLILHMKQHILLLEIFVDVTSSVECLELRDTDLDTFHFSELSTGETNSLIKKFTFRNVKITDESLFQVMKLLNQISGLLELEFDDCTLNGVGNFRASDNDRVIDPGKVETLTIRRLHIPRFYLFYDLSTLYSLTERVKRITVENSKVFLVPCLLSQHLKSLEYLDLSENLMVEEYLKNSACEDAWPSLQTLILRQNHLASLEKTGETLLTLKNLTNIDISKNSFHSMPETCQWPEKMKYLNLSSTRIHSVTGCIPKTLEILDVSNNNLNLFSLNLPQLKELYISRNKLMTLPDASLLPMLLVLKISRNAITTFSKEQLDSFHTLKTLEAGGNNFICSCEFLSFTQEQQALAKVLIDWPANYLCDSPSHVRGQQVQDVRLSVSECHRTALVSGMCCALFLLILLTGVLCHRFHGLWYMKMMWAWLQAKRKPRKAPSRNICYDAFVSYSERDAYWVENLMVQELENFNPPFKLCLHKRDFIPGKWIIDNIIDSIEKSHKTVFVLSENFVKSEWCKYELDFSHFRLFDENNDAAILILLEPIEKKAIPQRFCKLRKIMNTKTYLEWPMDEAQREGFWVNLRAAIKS
T2 sequence (O60603 21-784): as above

Molecule: SEQ ID NO: 16: peptide of the Lys-C proteolysate, retained at the 10 kDa cutoff (EQVFVQVSLNLVHFNQPK)
- stimulation of hTLR2 [1]: do not stimulate hTLR2

Molecule: SEQ ID NO: 12: peptide generated by proteolysis, obtained with both trypsin and Lys-C (MQLPIETPANNPEESDEADQAPWTPMPLEIAFQGDRESVLK)
- stimulation of hTLR2 [1]: do not stimulate hTLR2

Molecule: AMNAITGMQDYLFTVNSIRIRNERMMPPPIANPAAAK [SEQ ID NO: 2]
- concentration from which hTLR2 is (significantly) stimulated ([1]; HEK-Blue hTLR2 cells, 24 h): 3.05 nM
- concentration giving the best hTLR2 stimulation ([1]; HEK-Blue hTLR2 cells, 24 h): 305 nM
- Average weight ([2]; 0 weeks (initial state), DAG + SEQ ID NO: 2 High dose group): 23.9 grams
- Average weight ([2]; 0 weeks (initial state), DAG + SEQ ID NO: 2 Low dose group): 23.8 grams
- Average weight ([2]; 12 weeks, DAG + SEQ ID NO: 2 High dose (0.6 μg/mouse) intragastric daily): 42 grams
- Average weight ([2]; 12 weeks, DAG + SEQ ID NO: 2 Low dose (0.2 μg/mouse) intragastric daily): 40.2 grams
- glucose tolerance (AUC of GTT) versus DAG group [3]: improved glucose tolerance
- insulin sensitivity (AUC of insulin resistance test) versus DAG group [4]: improve insulin sensitivity
- insulin secretion in response to glucose administration [5]: tendency to decrease insulin secretion
- cellular infiltrate of adipose tissue ([6]; 12 weeks, versus DAG group): prevented the increase in cellular infiltrate induced by DAG
- inflammatory process in adipose tissue ([6]; SEQ ID NO:2 in high or low doses): attenuate the inflammatory process in adipose tissue
- circulating levels of IL-1B [7]: prevented the increase in the circulating levels of IL-1B
- circulating levels of TNFα [8]: prevented the increase in the circulating levels
- IL-6 levels [9]: dramatic decrease in IL-6 levels
- leptin secretion [10]: decrease in leptin secretion
- adiponectin in circulation [11]: tendency to prevent a fall of adiponectin

Molecule: SEQ ID NO: 14: peptide of the Lys-C proteolysate, passes the 5 kDa ultrafiltration membrane (PYMGK)
- stimulation of hTLR2 [1]: do not stimulate hTLR2

B1: peptide SEQ ID NO: 4 (amino terminal domain of SEQ ID NO: 1) (peptide)
chain: IVNSKRSELDKKISIAAKEIKSANAAEITPSRSSNEELEKELNRYAKAVGSLETAYKPFLASSALVPTTPTAFQNELKTFRDSLISSCKKKNILITDTSSWLGFQVYSTQAPSVQAASTLGFELKAINSLVNKLAECGLSKFIKVYRPQ
- EC50 [12]: 65.9 nM
- concentration from which hTLR2 is (significantly) stimulated ([1]; HEK-Blue hTLR2 cells, 24 h): 38 nM
- relative response compared to PAM ([1]; maximum concentration tested (305 nM)): 101%
- aggregation in ultrafiltration operations [13]: no visible aggregation

B2: peptide SEQ ID NO: 2 (peptide)
peptide: AMNAITGMQDYLFTVNSIRIRNERMMPPPIANPAAAK
- EC50 [12]: 24.9 nM

B3: protein of SEQ ID NO: 1 (AMUC_1100 of Akkermansia muciniphila without signal peptide, with Xa factor site and histidine tag) (ligand)
chain: MIVNSKRSELDKKISIAAKEIKSANAAEITPSRSSNEELEKELNRYAKAVGSLETAYKPFLASSALVPTTPTAFQNELKTFRDSLISSCKKKNILITDTSSWLGFQVYSTQAPSVQAASTLGFELKAINSLVNKLAECGLSKFIKVYRPQLPIETPANNPEESDEADQAPWTPMPLEIAFQGDRESVLKAMNAITGMQDYLFTVNSIRIRNERMMPPPIANPAAAKPAAAQPATGAASLTPADEAAAPAAPAIQQVIKPYMGKEQVFVQVSLNLVHFNQPKAQEPSEDIEGRHHHHHHDI
- EC50 [14]: 1.15 µg/mL
- EC50 [12]: 35.1 nM
- relative activation of NF-κβ ([1]; 10 μg/mL, 24 h stimulation of hTLR2, 60 min QUANTI-Blue, with respect to the culture medium): 16.6%±2.7
- aggregation in ultrafiltration operations [13]: aggregation
